Results taken from ChEMBL document CHEMBL1146328, “Binding mode and affinity studies of DNA-binding agents using topoisomerase I DNA unwinding assay” (Bioorg Med Chem Lett, 2007).

Assays:
DNA = experiment: Binding affinity to calf thymus DNA by ITC method; type: nucleic-acid assay; conditions: Bos taurus
Homo sapiens [1] = species: Homo sapiens; experiment: Binding affinity to DNA assessed as thermal melting temperature
Homo sapiens [2] = species: Homo sapiens; experiment: Binding affinity to DNA by spectrophotometric titration method
[3] = Partition coefficient, log P of the compound; type: physicochemical; conditions: octanol/water
[4] = biological target: T1, DNA topoisomerase 1 (Homo sapiens) (UniProt P11387); experiment: Binding affinity to topoisomerase 1 assessed as concentration needed for complete DNA re-supercoiling by Topo1 assay
T1 sequence (whole entry): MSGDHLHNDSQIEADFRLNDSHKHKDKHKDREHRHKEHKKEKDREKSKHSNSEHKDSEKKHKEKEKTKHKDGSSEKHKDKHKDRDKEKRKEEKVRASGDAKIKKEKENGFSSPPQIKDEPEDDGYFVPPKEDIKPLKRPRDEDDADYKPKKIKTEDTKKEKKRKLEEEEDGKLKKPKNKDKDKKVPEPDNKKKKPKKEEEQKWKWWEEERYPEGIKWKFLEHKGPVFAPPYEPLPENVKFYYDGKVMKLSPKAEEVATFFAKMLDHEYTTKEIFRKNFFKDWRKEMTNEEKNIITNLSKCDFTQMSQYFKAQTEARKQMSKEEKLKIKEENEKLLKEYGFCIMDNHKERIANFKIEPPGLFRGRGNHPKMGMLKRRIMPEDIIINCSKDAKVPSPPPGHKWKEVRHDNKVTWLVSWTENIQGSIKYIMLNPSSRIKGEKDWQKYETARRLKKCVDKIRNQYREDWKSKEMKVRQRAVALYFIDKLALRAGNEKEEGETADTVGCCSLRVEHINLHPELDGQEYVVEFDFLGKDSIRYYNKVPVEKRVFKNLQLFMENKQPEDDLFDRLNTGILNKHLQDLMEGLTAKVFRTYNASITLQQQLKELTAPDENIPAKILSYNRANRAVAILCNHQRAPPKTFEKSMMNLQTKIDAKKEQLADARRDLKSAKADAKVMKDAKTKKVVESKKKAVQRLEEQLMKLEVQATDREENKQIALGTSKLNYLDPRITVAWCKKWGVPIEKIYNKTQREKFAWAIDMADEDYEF

K (DNA)	ΔTm (Homo sapiens [1]) [°C]	K (Homo sapiens [2])	logP [3]	Activity [4] [µM]	SMILES
12.2 10^5/M	7.6	5 10^5/M	-2.5	3	C[N+](C)(C)CCCN1C(=O)c2ccc3c4c(ccc(c24)C1=O)C(=O)N(CCC[N+](C)(C)C)C3=O
5.7 10^5/M	4.6	1 10^5/M	-0.9	5	CCCC[N+](C)(CCCC)CCCN1C(=O)c2ccc3c4c(ccc(c24)C1=O)C(=O)N(CCC[N+](C)(CCCC)CCCC)C3=O
